Reference: US6355799B1, “Substituted benzene compounds, process for their preparation, and herbicidal and defoliant compositions containing them” (ISK Americas Incorporated, priority 1997, dated 2002)

Assays:
Type in all cases: in vivo
[1] = tested on: redroot pigweed (Amaranthus retroflexus, AMARE); test: Pre-emerge test, greenhouse herbicide activity screening; conditions: pre-emerge, rated 14 days after application, 0 = no damage, 100 = complete death
How it was run: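 Visual ratings on a 0-100 scale (0 no damage, 100 all plants dead) were taken at 14 days after treatment. Rates of 15-1000 g ai/ha in acetone, 187 l/ha, were sprayed onto soil one day after planting (pre-emerge) or onto 2-3 leaf plants with 0.25% v/v surfactant (post-emerge).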

[2] = tested on: barnyardgrass (Echinochloa crus-galli, ECHCG); test: as above; conditions: pre-emerge, rated 14 days after application, 0 = no damage, 100 = complete death
How it was run: (§1)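 Fourteen days after spraying, crop and weed injury was graded visually from 0, no effect, to 100, every plant dead. Test substances were dissolved in acetone and applied at 15–1000 g ai/ha with a flat-fan nozzle. Application was either pre-emergence, one day after sowing, or post-emergence at the 2–3 leaf stage.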

[3] = tested on: green foxtail (Setaria viridis, SETVI); test: as above; conditions: pre-emerge, rated 14 days after application, 0 = no damage, 100 = complete death
How it was run: as §1

[4] = tested on: ivyleaf morningglory (Ipomoea hederacea, IPOHE); test: as above; conditions: pre-emerge, rated 14 days after application, 0 = no damage, 100 = complete death
How it was run: as §1

[5] = tested on: johnsongrass (Sorghum halepense, SORHA); test: as above; conditions: pre-emerge, rated 14 days after application, 0 = no damage, 100 = complete death
How it was run: as §1

[6] = tested on: lambsquarters (Chenopodium album, CHEAL); test: as above; conditions: pre-emerge, rated 14 days after application, 0 = no damage, 100 = complete death
How it was run: as §1

[7] = tested on: large crabgrass (Digitaria sanguinalis, DIGSA); test: as above; conditions: pre-emerge, rated 14 days after application, 0 = no damage, 100 = complete death
How it was run: as §1

[8] = tested on: sicklepod (Cassia obtusifolia, CASOB); test: as above; conditions: pre-emerge, rated 14 days after application, 0 = no damage, 100 = complete death
How it was run: as §1

[9] = tested on: velvetleaf (Abutilon theophrasti, ABUTH); test: as above; conditions: pre-emerge, rated 14 days after application, 0 = no damage, 100 = complete death
How it was run: as §1

[10] = tested on: field corn (Zea mays L., var. Dekalb 535, CORN); test: Pre-emerge test, crop safety; conditions: 63 g ai/ha; pre-emerge; rated 14 days after application; 0 = no damage, 100 = complete death
How it was run: (§2)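 Compounds in acetone were track-sprayed at 15-1000 g ai/ha (187 l/ha) on sandy loam pots: pre-emerge one day after seeding, post-emerge at 2-3 leaf stage with 0.25% v/v non-ionic surfactant. Phytotoxicity was rated 14 days later on a 0 (no damage) to 100 (complete death) scale.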

[11] = tested on: upland rice (Oryza sp., var. Tebonnet, RICE); test: Pre-emerge test, crop safety; conditions: pre-emerge, rated 14 days after application, 0 = no damage, 100 = complete death
How it was run: as §2

[12] = tested on: barnyardgrass (Echinochloa crus-galli, ECHCG); test: Post-emerge test, greenhouse herbicide activity screening; conditions: phytotoxicity rating 0-100 (0 no damage, 100 complete death), 14 days after application
How it was run: as §1

[13] = tested on: green foxtail (Setaria viridis, SETVI); test: as above; conditions: phytotoxicity rating 0-100 (0 no damage, 100 complete death), 14 days after application
How it was run: as §1

[14] = tested on: ivyleaf morningglory (Ipomoea hederacea, IPOHE); test: as above; conditions: phytotoxicity rating 0-100 (0 no damage, 100 complete death), 14 days after application
How it was run: as §1

[15] = tested on: johnsongrass (Sorghum halepense, SORHA); test: as above; conditions: phytotoxicity rating 0-100 (0 no damage, 100 complete death), 14 days after application
How it was run: as §1

[16] = tested on: lambsquarters (Chenopodium album, CHEAL); test: as above; conditions: phytotoxicity rating 0-100 (0 no damage, 100 complete death), 14 days after application
How it was run: as §1

[17] = tested on: large crabgrass (Digitaria sanguinalis, DIGSA); test: as above; conditions: phytotoxicity rating 0-100 (0 no damage, 100 complete death), 14 days after application
How it was run: as §1

[18] = tested on: redroot pigweed (Amaranthus retroflexus, AMARE); test: as above; conditions: phytotoxicity rating 0-100 (0 no damage, 100 complete death), 14 days after application
How it was run: as §1

[19] = tested on: sicklepod (Cassia obtusifolia, CASOB); test: as above; conditions: phytotoxicity rating 0-100 (0 no damage, 100 complete death), 14 days after application
How it was run: as §1

[20] = tested on: velvetleaf (Abutilon theophrasti, ABUTH); test: as above; conditions: phytotoxicity rating 0-100 (0 no damage, 100 complete death), 14 days after application
How it was run: as §1

[21] = tested on: field corn (Zea mays L., var. Dekalb 535, CORN); test: Post-emerge test, crop safety; conditions: phytotoxicity rating 0-100 (0 no damage, 100 complete death), 14 days after application
How it was run: as §1

[22] = tested on: upland rice (Oryza sp., var. Tebonnet, RICE); test: Post-emerge test, crop safety; conditions: phytotoxicity rating 0-100 (0 no damage, 100 complete death), 14 days after application
How it was run: as §1

C=C(C)C(=O)Nc1c(OC)c(Cl)cc(F)c1-n1c(=O)cc(C(F)(F)F)n(C)c1=O [2-5]
Pre-emerge Herbicidal Activity AMARE (phytotoxicity rating, scale 0-100) ([1]; 63 g ai/ha): 90
Pre-emerge Herbicidal Activity AMARE (phytotoxicity rating, scale 0-100) ([1]; 250 g ai/ha): 100
Pre-emerge Herbicidal Activity ECHCG (phytotoxicity rating, scale 0-100) ([2]; 63 g ai/ha): 10
Pre-emerge Herbicidal Activity ECHCG (phytotoxicity rating, scale 0-100) ([2]; 250 g ai/ha): 90
Pre-emerge Herbicidal Activity SETVI (phytotoxicity rating, scale 0-100) ([3]; 63 g ai/ha): 100
Pre-emerge Herbicidal Activity SETVI (phytotoxicity rating, scale 0-100) ([3]; 250 g ai/ha): 100
Pre-emerge Herbicidal Activity IPOHE (phytotoxicity rating, scale 0-100) ([4]; 63 g ai/ha): 90
Pre-emerge Herbicidal Activity IPOHE (phytotoxicity rating, scale 0-100) ([4]; 250 g ai/ha): 100
Pre-emerge Herbicidal Activity SORHA (phytotoxicity rating, scale 0-100) ([5]; 63 g ai/ha): 60
Pre-emerge Herbicidal Activity SORHA (phytotoxicity rating, scale 0-100) ([5]; 250 g ai/ha): 90
Pre-emerge Herbicidal Activity CHEAL (phytotoxicity rating, scale 0-100) ([6]; 63 g ai/ha): 100
Pre-emerge Herbicidal Activity CHEAL (phytotoxicity rating, scale 0-100) ([6]; 250 g ai/ha): 100
Pre-emerge Herbicidal Activity DIGSA (phytotoxicity rating, scale 0-100) ([7]; 63 g ai/ha): 50
Pre-emerge Herbicidal Activity DIGSA (phytotoxicity rating, scale 0-100) ([7]; 250 g ai/ha): 95
Pre-emerge Herbicidal Activity CASOB (phytotoxicity rating, scale 0-100) ([8]; 63 g ai/ha): 40
Pre-emerge Herbicidal Activity CASOB (phytotoxicity rating, scale 0-100) ([8]; 250 g ai/ha): 100
Pre-emerge Herbicidal Activity ABUTH (phytotoxicity rating, scale 0-100) ([9]; 63 g ai/ha): 100
Pre-emerge Herbicidal Activity ABUTH (phytotoxicity rating, scale 0-100) ([9]; 250 g ai/ha): 100
Pre-emerge crop damage CORN (phytotoxicity rating, scale 0-100) [10]: 10
Pre-emerge crop damage RICE (phytotoxicity rating, scale 0-100) ([11]; 63 g ai/ha): 70
Pre-emerge crop damage RICE (phytotoxicity rating, scale 0-100) ([11]; 250 g ai/ha): 80
Post-emerge Herbicidal Activity ECHCG ([12]; 63 g ai/ha): 0
Post-emerge Herbicidal Activity ECHCG ([12]; 250 g ai/ha): 0
Post-emerge Herbicidal Activity SETVI ([13]; 63 g ai/ha): 0
Post-emerge Herbicidal Activity SETVI ([13]; 250 g ai/ha): 0
Post-emerge Herbicidal Activity IPOHE ([14]; 63 g ai/ha): 50
Post-emerge Herbicidal Activity IPOHE ([14]; 250 g ai/ha): 90
Post-emerge Herbicidal Activity SORHA ([15]; 63 g ai/ha): 0
Post-emerge Herbicidal Activity SORHA ([15]; 250 g ai/ha): 30
Post-emerge Herbicidal Activity CHEAL ([16]; 63 g ai/ha): 40
Post-emerge Herbicidal Activity CHEAL ([16]; 250 g ai/ha): 70
Post-emerge Herbicidal Activity DIGSA ([17]; 63 g ai/ha): 0
Post-emerge Herbicidal Activity DIGSA ([17]; 250 g ai/ha): 0
Post-emerge Herbicidal Activity AMARE ([18]; 63 g ai/ha): 20
Post-emerge Herbicidal Activity AMARE ([18]; 250 g ai/ha): 40
Post-emerge Herbicidal Activity CASOB ([19]; 63 g ai/ha): 10
Post-emerge Herbicidal Activity CASOB ([19]; 250 g ai/ha): 50
Post-emerge Herbicidal Activity ABUTH ([20]; 63 g ai/ha): 90
Post-emerge Herbicidal Activity ABUTH ([20]; 250 g ai/ha): 100
Post-emerge Herbicidal Activity CORN (crop damage) ([21]; 63 g ai/ha): 5
Post-emerge Herbicidal Activity CORN (crop damage) ([21]; 250 g ai/ha): 10
Post-emerge Herbicidal Activity RICE (crop damage) ([22]; 63 g ai/ha): 30
Post-emerge Herbicidal Activity RICE (crop damage) ([22]; 250 g ai/ha): 40
